From patent publication US11573234B2, “Predicting responders to cyclophosphamide therapy” (Royal Melbourne Institute of Technology, priority 2017, dated 2023)
Read-outs that look alike come from different tables or passages of the source.

How the values were obtained:
[1] = tested on: recurrent uterine and ovarian cancers; conditions: cited from earlier work; for response rates: second line, recurrent disease, cisplatin uterine, carboplatin ovarian cancers
[2] = tested on: advanced treatment-refractory gynaecological tumours
Procedure: (§1) Ten (10) human patients with gynaecological cancers with ages ranging from 62-82 years were recruited in a bicentric phase II trial. […] Disease progression was determined using RECIST and GCIG CA125 criteria (Rustin G J et al., (2011) Official journal of the International Gynaecological Cancer Society February; 21(2):419-23). From the time of recruitment, written consent was obtained from patients and pre-treatment blood samples were collected. Patients received oral doses of 50 mg cyclophosphamide twice daily (morning and evening), for 3 consecutive days and blood was collected 2 weeks later in EDTA coated tubes for whole blood and serum separation tubes for sera (BD Vacutainer, BD, USA). The treatment cycle and blood sampling were repeated at fortnightly intervals for up to 8 cycles. For healthy samples, buffy coats were obtained from routine blood donations, acquired at the Australian Red Cross Blood Service.

[3] = tested on: CCR4 expression on T cells
Procedure: as §1
Peripheral blood mononuclear cells (PBMCs) were isolated within 24 hours of blood collection via Ficoll (Amersham Pharmacia Biotech, Sweden) density gradient centrifugation. Cells were then washed in Dulbecco's Phosphate Buffered Saline (dPBS, Sigma-Aldrich, USA). The isolated PBMCs were frozen down in a freeze medium containing 10% DMSO (Sigma-Aldrich, USA) and 90% heat-inactivated fetal calf serum (GIBCO, Life Technologies, USA) or 90% human AB serum (Sera Laboratories International, UK) at a speed of 1° C./min at −80° C. and subsequently stored in liquid nitrogen. Upon thawing, each vial of frozen PBMCs was quickly defrosted in a 37° C. water-bath and re-suspended in AIM-V media (Life Technologies, USA) with 5% normal human serum (HS, Sigma-Aldrich, USA) (complete AIM-V media).
Cells were then washed twice with stain buffer. […] Data were analysed using Flowjo software (TreeStar, USA).
To investigate the effect of cyclophosphamide on CCR4 expression within T cells, the frequency of CCR4^+ cells pre-treatment (n=mean of 7-8 time points) was compared to the frequencies following each cycle of treatment (n=mean of 3-6 time points) for each individual patient.

[4] = tested on: CD107a on CD4+ and CD8+ T cells; conditions: 3 increased % CCR4 patients; PMA and ionomycin 6 hours
Procedure: The cytotoxic capacity of T cells was determined by culturing PBMCs with complete AIM-V media at 10^6 cells/500 μl/well in a 48 well plate. […] Brefeldin A (eBioscience, USA) was added at 3 μg/ml for the last 4 hours of incubation. After incubation, cells were washed and labelled for surface markers as described above. Cells were analysed using flow cytometry, unstimulated cells, fluorescence minus one (FMO) and isotype matched antibodies were also used as controls. Data were collected and analysed as above.
The frequencies of CD107a+ cells within CD4+ and CD8+ T cells were determined using samples from 3 of the 4 increased % CCR4 patients at one of the time points when CCR4+ T cell frequencies was increased.

[5] = tested on: ID8 tumour bearing animals; conditions: mouse, in vivo
Procedure: To address the effects of LDCy on immunity in tumour bearing animals, ID8 implanted animals (n=5/group) were treated at post challenge (at the onset of detectable tumour growth in vivo) with one cycle of LDCy and assessed changes in T cell subsets ex-vivo at days 1, 7 and 14 post in vivo treatment by flow cytometry.

[6] = tested on: CCR4 expression on T cells in PBMCs; assay: In vitro drug experiment: CCR4 expression on T cells in PBMCs; conditions: 30 ng/ml, 72 hours
[7] = tested on: acetylation of H3K9, H3K14 and H3K18; assay: Histone 3 acetylation detection by flow cytometry; format: cell-based, human; conditions: 72 hours
Procedure: The acetylation of histone 3 at lysine (H3K)9, H3K14 and H3K18 was assessed using flow cytometry. […] In the last 4 hours of culture, 50 nM panobinostat (LBH589, a pan histone deacetylase (HDAC) inhibitor) was added to the IL-2 cultures. Cells were harvested and prepared for flow cytometry analysis as described above. Following surface labelling, fixation and permeabilisation, cells were labelled with unconjugated anti-H3K9, anti-H3K14 and anti-H3K18 (Cell Signalling Technology, USA). Secondary labelling was performed using an Alexa Fluor 488 conjugated donkey anti-rabbit Ig antibody (Biolegend, USA). Data were collected and analysed as above.

[8] = increased % CCR4 patients at time points of CCR4 increase, p<0.05

O=P1(N(CCCl)CCCl)NCCCO1 (centres unmarked) [cyclophosphamide]
clinical benefit (share of patients) ([1]; low dose, women with recurrent ovarian cancer): 25-44% | mean overall survival ([2]; CCR4 spike patients (n=4)): 476 ± 80 days | mean overall survival ([2]; CCR4 steady patients (n=6)): 163 ± 37 days | patients who achieved stable disease ([2]; of the 4 CCR4 spike patients): 3 | patients who achieved stable disease ([2]; of the 6 CCR4 steady patients): None | increase in survival ([2]; patients with CCR4 up-regulation in vivo and in the in vitro CUP pre-test): > 300 days | survival of CCR4 spike patients relative to CCR4 steady patients ([2]; spike vs steady patients): approximately 3 times | mean ratio of CCR4+ Tconvs to CCR4+ Tregs, increased % CCR4 vs constant % CCR4 patients ([3]; first 3 cycles of treatment, p<0.01): over 2 fold | mean ratio of CCR4+ CD8+ T cells to CCR4+ Tregs, increased % CCR4 vs constant % CCR4 patients ([3]; first 3 cycles of treatment, p<0.05): over 3 fold | frequency of CCR4+ cells within Tregs compared to pre-treatment ([3]; increased % CCR4 patients at time points of CCR4 increase): not significantly increased | fold increase in the frequency of CCR4+ cells within CD8+ T cells compared to pre-treatment [3, 8]: 5 fold | fold increase in the frequency of CCR4+ cells within Tconvs compared to pre-treatment [3, 8]: 5 fold | CCR4 mean fluorescence intensity (MFI) within Tregs, Tconvs and CD8+ T cells relative to pre-treatment ([3]; increased % CCR4 patients, all 3 populations): remained unchanged | patients with significant increases in the frequency of CCR4+ cells within CD3+ T cells ([3]; of the 10 patients, following at least one cycle, within the first 3 cycles): 4 | mean frequency of CD107a+ cells in CD4+ and CD8+ populations vs pre-treatment [4]: increased compared to pre-treatment samples, however neither increase was significant | CCR4+ CD4 T cell effectors in peripheral blood [5]: a trend towards CCR4^+ CD4 T cell effector increases | CCR4+ Treg in peripheral blood [5]: no increases | CCR4+CD8+ T cells in peripheral blood [5]: clear increases | CD69+ CD4 T cell effectors in TILS [5]: a trend towards CD69^+ CD4 T cell effector increases | CD69+ Treg in TILS [5]: no CD69^+Treg increases | CD69+CD8+ T cells in tumour infiltrating lymphocytes (TILS) [5]: clearly increased

CC(=O)O[C@H]1C(=O)[C@@]2(C)[C@H]([C@H](OC(=O)c3ccccc3)[C@]3(O)C[C@H](OC(=O)[C@H](O)[C@@H](NC(=O)c4ccccc4)c4ccccc4)C(C)=C1C3(C)C)[C@]1(OC(C)=O)CO[C@@H]1C[C@@H]2O [paclitaxel]
frequency of CCR4+ T cells in healthy PBMCs [6]: does not Significantly Increase

N.N.[Cl][Pt][Cl] [cisplatin]
response rates [1]: around 20%

N.N.O=C([O-])C1(C(=O)[O-])CCC1.[Pt+2] [carboplatin]
response rates [1]: around 20%

B1: IL-4: IL-4 (R&D systems, USA), cytokine used at 10 ng/ml (protein, UniProt P05112 25-153, looked up)
Interleukin-4: HKCDITLQEIIKTLNSLTEQKTLCTELTVTDIFAASKNTTEKETFCRAATVLRQFYSHHEKDTRCLGATAQQFHRHKQLIRFLKRLDRNLWGLAGLNSCPVKEANQSTLENFLERLKTIMREKYSKCSS
acetylation of H3K9 in CD8+ T cells ([7]; IL-4 10 ng/ml, p<0.05): slight but significant decrease | acetylation of H3K14 ([7]; mafosfamide […] or IL-4 10 ng/ml): Neither mafosfamide nor IL-4 treatment resulted in a change
